# Data reported in patent publication US11246899B2, “Urtica dioica extracts and methods of isolating urtica dioica extracts” (SynHiTech Inc., priority 2018, dated 2022).
# System: Type 2 diabetic patients
# Assay: Clinical study in Type 2 diabetic patients, blood glucose by glucometer and side effects
# Format: in vivo, human
# Protocol: The effect of the Urdi-1 extract was tested on six Type 2 diabetic patients. The consents were filled by patients and were reviewed by the ethical committee of Tehran Hospital. The UD1-extract (20 mg of Urdi-1) was taken orally as one or two dosages per day. Blood glucose was measured by glucometer as fasted or after dining. After getting the promising data at the animal level, we tested the efficacy of Urdi-1 in Type 2 diabetic patients. Six patients (Patient I to VI) with high level of blood glucose consented to participate in the study (Table 2). These patients were selected different sex (male and female) with varying age ranging from mid forty to late sixty. As the level of the referral blood glucose and the medication administrated by their physicians were different data of each patient is presented individually.
# [1] = Patient I, after insulin two weeks then Glibenclamide and metformin for one month
# [2] = Patient IV, after insulin 17 days then Glibenclamide and metformin for two weeks
substance,measurement,setting,value
Glibenclamide and metformin,fasting blood glucose,[1],about 175 mg/dL
same,night blood glucose,[1],~225 mg/dL
same,fasting blood glucose,[2],about 90 mg/dL
same,night blood glucose,[2],~220 mg/dL
